Common to all, as to assay type: biochemical
Test [1] deals with CDK2/cyclin A (Homo sapiens, UniProt P20248). Put plainly: CDK2/cyclin A kinase assay, substrate pRb(773-928). The note with it: CDK2/cyclin A kinase assay, pRb substrate, [ATP] = 100 μM. The source says:
Reactions were stopped on ice, followed by filtration through p81 filterplates (Whatman Polyfiltronics, Kent, UK).

Test [2] has as its target T1, CDK4/Cyclin D1 (Homo sapiens, UniProt P24385).
T1 construct: made in house; host or cells: CDK4: Sf9 insect cells (baculovirus)
Description: CDK4/Cyclin D1 kinase assay, phosphorylation of GST-Rb. The following applies: GST-pRb substrate, [ATP] = 100 μM. The protocol:
(§1) The phosphorylation reaction mixture (total volume 40 μl) consisted of 50 mM HEPES pH 7.4, 20 mM MgCl2, 5 mM EGTA, 2 mM DTT, 20 mM β-glycerophosphate, 2 mM NaF, 1 mM Na3VO4, Protease Inhibitors Cocktail (Sigma, see above), BSA 0.5 mg/ml, 1 μg purified enzyme complex, 10 μl of GST-Rb-Sepharose beads, 100 μM ATP, 0.2 μCi ^32P-ATP. The reaction was carried out for 30 min at 30° C. at constant shaking. At the end of this period 100 μl of 50 mM HEPES, pH 7.4 and 1 mM ATP were added to each well and the total volume was transferred onto GFC filtered plate. The plate was washed 5 times with 200 μl of 50 mM HEPES, pH 7.4 and 1 mM ATP. To each well were added 50 μl scintillant liquid and the radioactivity of the samples was measured on Scintilation counter (Topcount, HP). The IC50 values of different peptides were calculated using GraFit software.
Peptides were synthesized as described above. Cyclin D1 was expressed in E coli BL21(DE3) using PET expression vector and purified from the inclusion bodies. After refolding Cyclin D1 was cross-linked on SulfoLink agarose support (PIERCE). CDK4-6×His was expressed in Sf9 insect cells infected with the appropriate baculovirus construct and purified by metal-affinity chromatography (Quiagen). […] CDK4/Cyclin D1 phosphorilation of Rb was determined by incorporation of radio-labeled phosphate in GST-Rb in 96-well format kinase assay. […] The reaction was carried out for 30 min at 30 C at constant shaking. The GST-Rb-Sepharose beads were washed with 50 mM HEPES and 1 mM ATP and the radioactivity was measured on Scintillation counter (Topcount, HP)

In test [3] the target is T2, CDK2/Cyclin E (Homo sapiens, UniProt P24864).
T2 construct: 6xHis; made in house; host or cells: Sf9 insect cells (baculovirus co-expression)
Put plainly: CDK2/Cyclin E kinase assay, phosphorylation of GST-Rb. The note with it: GST-pRb substrate, [ATP] = 100 μM. The procedure:
as §1

Where [4] appears, read: relative to H-His-Ala-Lys-Arg-Arg-Leu-Ile-Phe-NH2 (SEQ ID No. 36) = 1.
Setting [5] is: multiple substitutions (Example 22), relative to SEQ ID No. 36 = 1.

Square brackets hold non-standard residues; d marks the D form. Phe(4-F) = N[C@@H](Cc1ccc(F)cc1)C(=O)O; Cit = NC(=O)NCCC[C@H](N)C(=O)O; dPsa = O-acetyl-D-phenylserine; Psa = O-acetylphenylserine; Abu = CC[C@H](N)C(=O)O

T1 sequence (P24385 whole entry): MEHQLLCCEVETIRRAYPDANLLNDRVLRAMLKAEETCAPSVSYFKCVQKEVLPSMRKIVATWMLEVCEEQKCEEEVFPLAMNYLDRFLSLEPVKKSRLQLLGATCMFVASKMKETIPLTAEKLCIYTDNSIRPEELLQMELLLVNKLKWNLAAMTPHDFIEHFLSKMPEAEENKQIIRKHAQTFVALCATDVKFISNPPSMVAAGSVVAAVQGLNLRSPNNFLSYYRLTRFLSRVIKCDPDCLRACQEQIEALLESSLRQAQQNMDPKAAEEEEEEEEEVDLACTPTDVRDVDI
T1 sequence (P11802 whole entry partner): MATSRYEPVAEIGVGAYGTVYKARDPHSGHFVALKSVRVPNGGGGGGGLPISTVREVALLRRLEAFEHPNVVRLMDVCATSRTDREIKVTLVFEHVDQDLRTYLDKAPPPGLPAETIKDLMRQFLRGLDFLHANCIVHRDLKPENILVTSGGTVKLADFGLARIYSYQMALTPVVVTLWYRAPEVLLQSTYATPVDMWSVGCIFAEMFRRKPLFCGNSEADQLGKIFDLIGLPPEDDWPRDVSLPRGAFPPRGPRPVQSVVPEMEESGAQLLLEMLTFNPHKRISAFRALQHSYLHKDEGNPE

Take 114 (H-HAKRRLI[Psa]-OH) [compound 114]: the “Relative activity Kinase Inhibition” value in test [1] (setting [4]) came to 22.

With 115 (H-HAKRRLI[dPsa]-OH) [compound 115], the “Relative activity Kinase Inhibition” value in test [1] (setting [4]) is recorded as <0.1.

As for 116 (H-HSKRRLI[Psa]-OH) [compound 116], the “Relative activity Kinase Inhibition” value in test [1] (setting [4]) was <0.1.

With 117 (H-HSKRRLI[dPsa]-OH) [compound 117], the “Relative activity Kinase Inhibition” value in test [1] (setting [4]) is reported as <0.1.

On to “122 (H-AA[Abu]RRLI[Phe(4-F)]-NH2; SMILES CC[C@H](NC(=O)[C@H](C)NC(=O)[C@H](C)N)C(=O)N[C@@H](CCCNC(=N)N)C(=O)N[C@@H](CCCNC(=N)N)C(=O)N[C@@H](CC(C)C)C(=O)N[C@H](C(=O)N[C@@H](Cc1ccc(F)cc1)C(N)=O)[C@@H](C)CC) [compound 122]”, for which, in test [1] (setting [5]), the “Relative activity Kinase Inhibition” value is on record as 60.

As to “123 (H-AAKRRLI[Phe(4-F)]-NH2; SMILES CC[C@H](C)[C@H](NC(=O)[C@H](CC(C)C)NC(=O)[C@H](CCCNC(=N)N)NC(=O)[C@H](CCCNC(=N)N)NC(=O)[C@H](CCCCN)NC(=O)[C@H](C)NC(=O)[C@H](C)N)C(=O)N[C@@H](Cc1ccc(F)cc1)C(N)=O) [compound 123]”, the “Relative activity Kinase Inhibition” value in test [1] (setting [5]) worked out at 80.

In the case of “124 (H-AAKR[Cit]LI[Phe(4-F)]-NH2; SMILES CC[C@H](C)[C@H](NC(=O)[C@H](CC(C)C)NC(=O)[C@H](CCCNC(N)=O)NC(=O)[C@H](CCCNC(=N)N)NC(=O)[C@H](CCCCN)NC(=O)[C@H](C)NC(=O)[C@H](C)N)C(=O)N[C@@H](Cc1ccc(F)cc1)C(N)=O) [compound 124]”, the “Relative activity Kinase Inhibition” value in test [1] (setting [5]) is recorded as 10.

As to “125 (H-AAKRRLA[Phe(4-F)]-NH2; SMILES CC(C)C[C@H](NC(=O)[C@H](CCCNC(=N)N)NC(=O)[C@H](CCCNC(=N)N)NC(=O)[C@H](CCCCN)NC(=O)[C@H](C)NC(=O)[C@H](C)N)C(=O)N[C@@H](C)C(=O)N[C@@H](Cc1ccc(F)cc1)C(N)=O) [compound 125]”, the “Relative activity Kinase Inhibition” value in test [1] (setting [5]) is reported as 20.

“126 (H-AA[Abu]RSLI[Phe(4-F)]-NH2; SMILES CC[C@H](NC(=O)[C@H](C)NC(=O)[C@H](C)N)C(=O)N[C@@H](CCCNC(=N)N)C(=O)N[C@@H](CO)C(=O)N[C@@H](CC(C)C)C(=O)N[C@H](C(=O)N[C@@H](Cc1ccc(F)cc1)C(N)=O)[C@@H](C)CC) [compound 126]”: the “Relative activity Kinase Inhibition” value in test [1] (setting [5]) is recorded as 14.

“127 (H-AAKQRLI[Phe(4-F)]-NH2; SMILES CC[C@H](C)[C@H](NC(=O)[C@H](CC(C)C)NC(=O)[C@H](CCCNC(=N)N)NC(=O)[C@H](CCC(N)=O)NC(=O)[C@H](CCCCN)NC(=O)[C@H](C)NC(=O)[C@H](C)N)C(=O)N[C@@H](Cc1ccc(F)cc1)C(N)=O) [compound 127]”: the “Relative activity Kinase Inhibition” value in test [1] (setting [5]) came out at 4.

As for AFYHSKRRLIFS, in test [2], the “Kinase Inhibition Cyclin D1/CDK4 % Inhibition” value is on record as 72% and the “Kinase Inhibition Cyclin D1/CDK4 IC30” value stood at 22 ± 4 µM. In addition, in test [3], the “Kinase Inhibition Cyclin E/CDK2 % Inhibition” value is given as 70% and the “Kinase Inhibition Cyclin E/CDK2 IC30” value amounted to 11 ± 2 µM.

For the substance DAYHSKRRLIFS, in test [2], the “Kinase Inhibition Cyclin D1/CDK4 % Inhibition” value is given as 76% and the “Kinase Inhibition Cyclin D1/CDK4 IC30” value stood at 37 ± 6 µM. In test [3], the “Kinase Inhibition Cyclin E/CDK2 % Inhibition” value amounted to 85% and the “Kinase Inhibition Cyclin E/CDK2 IC30” value came to 5.9 ± 0.4 µM.

Turning to DFAHSKRRLIFS, in test [2], the “Kinase Inhibition Cyclin D1/CDK4 % Inhibition” value stood at 56% and the “Kinase Inhibition Cyclin D1/CDK4 IC30” value amounted to 121 ± 31 µM. For the same substance, in test [3], the “Kinase Inhibition Cyclin E/CDK2 % Inhibition” value was determined as 80% and the “Kinase Inhibition Cyclin E/CDK2 IC30” value is 5.3 ± 0.6 µM.

As to DFYASKRRLIFS, in test [2], the “Kinase Inhibition Cyclin D1/CDK4 % Inhibition” value was 60% and the “Kinase Inhibition Cyclin D1/CDK4 IC30” value came out at 73 ± 42 µM. Besides, in test [3], the “Kinase Inhibition Cyclin E/CDK2 % Inhibition” value amounted to 80% and the “Kinase Inhibition Cyclin E/CDK2 IC30” value worked out at 5.1 ± 0.5 µM.

Regarding DFYHSARRLIFS, in test [2], the “Kinase Inhibition Cyclin D1/CDK4 % Inhibition” value is listed as 50% and the “Kinase Inhibition Cyclin D1/CDK4 IC30” value turned out to be 200 µM. Moreover, in test [3], the “Kinase Inhibition Cyclin E/CDK2 % Inhibition” value was determined as 80% and the “Kinase Inhibition Cyclin E/CDK2 IC30” value came out at 12.9 ± 2.4 µM.

As for DFYHSK, the “Kinase Inhibition Cyclin D1/CDK4 % Inhibition” value in test [2] came to 10%. For the same substance, in test [3], the “Kinase Inhibition Cyclin E/CDK2 % Inhibition” value is recorded as 45% and the “Kinase Inhibition Cyclin E/CDK2 IC30” value came out at 200 µM.

Take DFYHSKARLIFS (H-DFYHSKARLIFS-NH2): the “Kinase Inhibition Cyclin D1/CDK4 % Inhibition” value in test [2] is reported as 30%. Further, the “Kinase Inhibition Cyclin E/CDK2 % Inhibition” value in test [3] was 25%.

On to DFYHSKR, for which, in test [3], the “Kinase Inhibition Cyclin E/CDK2 % Inhibition” value was 50% and the “Kinase Inhibition Cyclin E/CDK2 IC30” value amounted to 200 µM.

As for DFYHSKRALIFS, the “Kinase Inhibition Cyclin D1/CDK4 % Inhibition” value in test [2] is reported as 30%. In test [3], the “Kinase Inhibition Cyclin E/CDK2 % Inhibition” value was 70% and the “Kinase Inhibition Cyclin E/CDK2 IC30” value came to 30 ± 8 µM.

The values above are taken from patent US20050153894A1, “p21 peptides” (Cyclacel Limited, priority 1999, published 2005).
